Five molecules from patent US9255094B2, “Pyrido[4,3-B]indoles and methods of use” (Medivation Technologies, Inc., priority 2009, dated 2016) can be followed below.

The target in assay [1] is T1, human recombinant adrenergic α2A receptor (Homo sapiens, UniProt P08913).
T1 construct: expressed in transfected cells; host or cells: insect Sf9 cells
T1 sequence (P08913 1-465): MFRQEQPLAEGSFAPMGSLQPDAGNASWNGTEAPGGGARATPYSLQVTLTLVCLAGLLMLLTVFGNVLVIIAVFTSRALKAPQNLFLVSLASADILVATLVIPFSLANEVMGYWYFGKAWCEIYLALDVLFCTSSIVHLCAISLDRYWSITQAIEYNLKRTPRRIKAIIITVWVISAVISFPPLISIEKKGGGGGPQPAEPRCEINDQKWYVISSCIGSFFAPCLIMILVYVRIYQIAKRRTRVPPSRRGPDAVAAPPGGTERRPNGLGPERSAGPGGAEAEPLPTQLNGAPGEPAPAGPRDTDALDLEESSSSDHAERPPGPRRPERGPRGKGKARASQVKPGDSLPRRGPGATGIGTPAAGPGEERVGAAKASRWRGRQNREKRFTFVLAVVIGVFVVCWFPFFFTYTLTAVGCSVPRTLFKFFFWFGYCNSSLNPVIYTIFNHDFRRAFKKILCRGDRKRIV
Kind of assay: Adrenergic α2A radioligand binding assay ([3H]MK-912). The conditions noted are these: compound at 1 μM, 1 nM [3H]MK-912, insect Sf9 cells. As to the method:
To evaluate in radioligand binding assays the activity of compounds of the invention, human recombinant adrenergic α2A receptor expressed in insect Sf9 cells (Uhlen S et al. J. Pharmacol. Exp. Ther. 271:1558, 1994) in a modified Tris-HCl buffer (50 mM Tris-HCl, pH 7.4, 12.5 mM MgCl2, 2 mM EDTA) was used. Compounds of invention were incubated with 1 nM [^3H]MK-912 for 60 min at 25° C. MK912 is (2S-trans)-1,3,4,5′,6,6′,7,12b-octahydro-1′,3′-dimethyl-spiro[2H-benzofuro[2,3-a]quinolizine-2,4′(1′H)-pyrimidin]-2′(3′H)-one hydrochloride Non-specific binding was estimated in the presence of 10 μM WB-4101 (2-(2,6-dimethoxyphenoxyethyl)aminomethyl-1,4-benzodioxane hydrochloride). Receptor proteins were filtered and washed, the filters were then counted to determine [^3H]MK-912 specifically bound.

Assay [2] concerns the target T2, human recombinant serotonin (5-Hydroxytryptamine) 5-HT2A receptor (Homo sapiens, UniProt P28223).
T2 construct: expressed in transfected cells; host or cells: Chinese hamster ovary (CHO-K1) cells
The experiment in a line: Serotonin 5-HT2A radioligand binding assay ([3H]Ketanserin). As to conditions: 0.5 nM [3H]Ketanserin, CHO-K1 cells; for Percent Inhibition of ligand binding, Serotonin (1 μM) 5-HT2A / inhibition at 1 µM: compound at 1 μM; for inhibition at 0.1 µM: compound at 0.1 μM, read-out: Percent Inhibition of ligand binding, Serotonin (0.1 μM) 5-HT2A; for inhibition at 1 µM: read-out: Percent Inhibition of ligand binding, Serotonin (1 μM) 5-HT2A. As to the method:
Compounds of the invention were incubated with 0.5 nM [^3H]Ketanserin for 60 min at 25° C. Non-specific binding was estimated in the presence of 1 μM Mianserin. Receptor proteins were filtered and washed, the filters were then counted to determine [^3H]Ketanserin specifically bound. Compounds were screened at 1 μM or lower, using 1% DMSO as vehicle. Biochemical assay results are presented as the percent inhibition of specific binding in Table 4.

In assay [3] the target is human recombinant histamine H1 receptor (Homo sapiens, UniProt P35367). The experiment in a line: Histamine H1 radioligand binding assay ([3H]Pyrilamine). As to conditions: compound at 1 μM, receptor expressed in CHO cells. As to the method: To evaluate in radioligand binding assays the activity of compounds of the invention, human recombinant histamine H1 receptor expressed in Chinese hamster ovary (CHO) cells (De Backer, M. D. et al., Biochem. Biophys. Res. Comm. 197(3):1601, 1993) in a modified Tris-HCl buffer (50 mM Tris-HCl, pH 7.4, 2 mM MgCl2, 100 mM NaCl, 250 mM Sucrose) was used. Compounds of the invention were incubated with 1.2 nM [^3H]Pyrilamine for 180 min at 25° C. Non-specific binding was estimated in the presence of 1 μM pyrilamine Receptor proteins were filtered and washed, the filters were then counted to determine [^3H]Pyrilamine specifically bound. Compounds were screened at 1 μM or lower, using 1% DMSO as vehicle. Biochemical assay results are presented as the percent inhibition of specific binding in Table 2.

Assay [4] concerns the target human recombinant dopamine D2L receptor (Homo sapiens, UniProt P14416). The experiment in a line: Dopamine D2L radioligand binding assay ([3H]Spiperone). The conditions noted are these: compound at 1 μM, 0.16 nM [3H]Spiperone, CHO cells, read-out: Percent Inhibition of ligand binding, Dopamine (1μM). How it is done: Compounds of the invention were incubated with 0.16 nM [^3H]Spiperone for 120 min at 25° C. Non-specific binding was estimated in the presence of 10 μM Haloperidol. Receptor proteins were filtered and washed, the filters were then counted to determine [^3H]Spiperone specifically bound. Compounds were screened at 1 μM or lower, using 1% DMSO as vehicle. Biochemical assay results are presented as the percent inhibition of specific binding in Table 3.

The target of assay [5] is human recombinant serotonin (5-Hydroxytryptamine) 5-HT7 receptor (Homo sapiens, UniProt P34969). Kind of assay: Serotonin 5-HT7 radioligand binding assay ([3H]LSD). The conditions noted are these: 5.5 nM [3H]LSD, CHO cells; for inhibition at 0.1 µM: compound at 0.1 μM, read-out: Percent Inhibition of ligand binding, Serotonin (0.1 μM) 5-HT7. How it is done: Compounds of invention were incubated with 5.5 nM [^3H] Lysergic acid diethylamide (LSD) for 2 h at 25° C. […] Receptor proteins were filtered and washed, the filters were then counted to determine [^3H]LSD specifically bound. Compounds were screened at 1 μM or lower, using 1% DMSO as vehicle. Biochemical assay results are presented as the percent inhibition of specific binding in Table 4.

Assay [6] deals with T3, human recombinant serotonin (5-Hydroxytryptamine) 5-HT2C receptor (Homo sapiens, UniProt P28335).
T3 construct: expressed in transfected cells; host or cells: Chinese hamster ovary (CHO-K1) cells
T3 sequence (P28335 33-458): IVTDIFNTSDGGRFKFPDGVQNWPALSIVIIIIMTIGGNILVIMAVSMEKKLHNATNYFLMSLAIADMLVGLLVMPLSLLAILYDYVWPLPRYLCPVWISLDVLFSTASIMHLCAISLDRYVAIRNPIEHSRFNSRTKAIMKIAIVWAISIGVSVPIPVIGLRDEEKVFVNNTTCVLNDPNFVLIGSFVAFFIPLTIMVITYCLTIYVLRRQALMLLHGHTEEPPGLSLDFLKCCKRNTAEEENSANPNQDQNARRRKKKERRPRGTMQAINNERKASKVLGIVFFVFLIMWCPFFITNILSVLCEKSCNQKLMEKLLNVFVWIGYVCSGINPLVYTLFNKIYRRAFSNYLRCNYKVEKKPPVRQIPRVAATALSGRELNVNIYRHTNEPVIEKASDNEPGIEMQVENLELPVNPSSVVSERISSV
Kind of assay: Serotonin 5-HT2C radioligand binding assay ([3H]Mesulergine). As to conditions: 1 nM [3H]Mesulergine, CHO-K1 cells; for inhibition at 0.1 µM: compound at 0.1 μM, read-out: Percent Inhibition of ligand binding, Serotonin (0.1 μM) 5-HT2C. How it is done: Compounds of the invention were incubated with 1 nM [^3H]Mesulergine for 60 min at 25° C. Non-specific binding was estimated in the presence of 1 μM Mianserin. Receptor proteins were filtered and washed, the filters were then counted to determine [^3H]Mesulergine specifically bound. Compounds were screened at 1 μM or lower, using 1% DMSO as vehicle. Biochemical assay results are presented as the percent inhibition of specific binding in Table 4.

In assay [7] the target is T4, human recombinant serotonin (5-Hydroxytryptamine) 5-HT6 receptor (Homo sapiens, UniProt P50406).
T4 construct: expressed in transfected cells; host or cells: human HeLa cells
The experiment in a line: Serotonin 5-HT6 radioligand binding assay ([3H]LSD). As to conditions: HeLa cells; for inhibition at 0.1 µM: compound at 0.1 μM, read-out: Percent Inhibition of ligand binding, Serotonin (0.1 μM) 5-HT6. How it is done: Compounds of the invention were incubated with 1.5 nM [3H]Lysergic acid diethylamide (LSD) for 120 min at 37° C. […] Receptor proteins were filtered and washed, the filters were then counted to determine [3H]LSD specifically bound. Compounds were screened at 1 μM or lower, using 1% DMSO as vehicle. Biochemical assay results are presented as the percent inhibition of specific binding in Table 4.

The target of assay [8] is T5, human recombinant adrenergic α1D receptor (Homo sapiens, UniProt P25100).
T5 construct: expressed in transfected cells; host or cells: human embryonic kidney (HEK-293) cells
T5 sequence (P25100 1-572): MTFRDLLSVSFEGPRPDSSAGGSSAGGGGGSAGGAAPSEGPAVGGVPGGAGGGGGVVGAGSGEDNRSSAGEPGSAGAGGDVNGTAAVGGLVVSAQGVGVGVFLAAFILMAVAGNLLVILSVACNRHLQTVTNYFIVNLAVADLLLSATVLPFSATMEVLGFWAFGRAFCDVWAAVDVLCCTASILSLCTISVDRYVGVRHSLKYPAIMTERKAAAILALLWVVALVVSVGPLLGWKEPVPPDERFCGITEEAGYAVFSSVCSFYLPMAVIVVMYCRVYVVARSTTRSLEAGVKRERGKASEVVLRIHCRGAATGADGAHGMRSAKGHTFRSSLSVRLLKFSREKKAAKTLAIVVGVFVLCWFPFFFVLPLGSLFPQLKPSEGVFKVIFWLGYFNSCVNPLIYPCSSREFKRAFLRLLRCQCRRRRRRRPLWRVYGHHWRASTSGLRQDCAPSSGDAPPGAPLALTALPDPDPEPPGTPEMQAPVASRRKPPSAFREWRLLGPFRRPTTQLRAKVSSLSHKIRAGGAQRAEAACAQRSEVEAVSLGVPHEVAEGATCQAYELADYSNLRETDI
The experiment in a line: Adrenergic α1D radioligand binding assay ([3H]Prozosin). The conditions noted are these: compound at 1 μM; 0.6 nM [3H]Prozosin; HEK-293 cells; read-out: Percent Inhibition of ligand binding, Adrenergic (1 μM) a1D. As to the method:
Compounds of invention were incubated with 0.6 nM [^3H]Prozosin for 60 min at 25° C. Non-specific binding was estimated in the presence of 10 μM phentolamine Receptor proteins were filtered and washed, the filters were then counted to determine [^3H]Prozosin specifically bound.

Sequence of human recombinant histamine H1 receptor (P35367 whole entry): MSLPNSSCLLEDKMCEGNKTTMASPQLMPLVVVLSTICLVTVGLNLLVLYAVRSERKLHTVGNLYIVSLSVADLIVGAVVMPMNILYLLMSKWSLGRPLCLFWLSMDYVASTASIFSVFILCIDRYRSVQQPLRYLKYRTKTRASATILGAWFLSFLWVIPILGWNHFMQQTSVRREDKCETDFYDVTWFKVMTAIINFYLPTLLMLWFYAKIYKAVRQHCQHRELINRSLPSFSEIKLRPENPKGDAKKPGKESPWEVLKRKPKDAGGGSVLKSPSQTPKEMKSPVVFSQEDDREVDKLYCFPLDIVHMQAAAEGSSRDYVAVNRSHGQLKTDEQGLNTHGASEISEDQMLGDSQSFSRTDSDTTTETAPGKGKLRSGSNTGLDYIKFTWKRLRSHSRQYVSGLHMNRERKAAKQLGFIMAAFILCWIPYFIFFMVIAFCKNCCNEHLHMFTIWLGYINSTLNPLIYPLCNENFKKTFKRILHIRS
T4 sequence (P50406 whole entry): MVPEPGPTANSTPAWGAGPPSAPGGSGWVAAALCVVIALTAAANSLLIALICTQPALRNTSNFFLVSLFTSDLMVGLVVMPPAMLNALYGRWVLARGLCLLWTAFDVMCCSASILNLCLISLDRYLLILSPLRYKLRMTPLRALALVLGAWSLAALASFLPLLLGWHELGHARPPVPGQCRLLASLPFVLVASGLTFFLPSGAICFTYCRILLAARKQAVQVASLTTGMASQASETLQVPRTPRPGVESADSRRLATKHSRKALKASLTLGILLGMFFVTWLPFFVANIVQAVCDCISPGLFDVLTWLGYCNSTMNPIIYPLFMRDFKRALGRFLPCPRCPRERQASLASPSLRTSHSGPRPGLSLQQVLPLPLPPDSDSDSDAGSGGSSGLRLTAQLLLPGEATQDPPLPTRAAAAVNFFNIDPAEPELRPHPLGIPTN
T2 sequence (P28223 whole entry): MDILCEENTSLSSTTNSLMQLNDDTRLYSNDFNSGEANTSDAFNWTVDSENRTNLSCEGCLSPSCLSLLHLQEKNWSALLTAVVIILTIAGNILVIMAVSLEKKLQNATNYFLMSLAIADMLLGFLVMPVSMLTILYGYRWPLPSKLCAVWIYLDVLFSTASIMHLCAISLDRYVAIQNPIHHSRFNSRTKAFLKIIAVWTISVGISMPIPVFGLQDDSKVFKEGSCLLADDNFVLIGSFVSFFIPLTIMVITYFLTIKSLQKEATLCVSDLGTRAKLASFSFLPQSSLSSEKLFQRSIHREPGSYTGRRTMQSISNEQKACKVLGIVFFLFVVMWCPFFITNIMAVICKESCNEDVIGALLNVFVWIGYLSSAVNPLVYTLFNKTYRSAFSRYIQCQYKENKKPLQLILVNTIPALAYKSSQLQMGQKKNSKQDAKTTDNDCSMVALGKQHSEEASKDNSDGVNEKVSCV
Sequence of human recombinant serotonin (5-Hydroxytryptamine) 5-HT7 receptor (P34969 whole entry): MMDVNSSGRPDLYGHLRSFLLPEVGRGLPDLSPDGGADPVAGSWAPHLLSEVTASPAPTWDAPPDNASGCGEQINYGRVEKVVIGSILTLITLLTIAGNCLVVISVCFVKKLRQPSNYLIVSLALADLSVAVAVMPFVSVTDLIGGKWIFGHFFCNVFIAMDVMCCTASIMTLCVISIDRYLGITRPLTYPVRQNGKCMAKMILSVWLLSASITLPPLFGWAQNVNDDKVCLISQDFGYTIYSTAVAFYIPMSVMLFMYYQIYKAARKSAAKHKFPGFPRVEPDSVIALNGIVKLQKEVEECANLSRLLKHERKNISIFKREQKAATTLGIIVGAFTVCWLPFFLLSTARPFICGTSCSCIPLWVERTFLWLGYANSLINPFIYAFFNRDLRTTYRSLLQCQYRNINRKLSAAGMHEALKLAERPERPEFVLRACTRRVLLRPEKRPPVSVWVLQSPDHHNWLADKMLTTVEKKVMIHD
Sequence of human recombinant dopamine D2L receptor (P14416 whole entry): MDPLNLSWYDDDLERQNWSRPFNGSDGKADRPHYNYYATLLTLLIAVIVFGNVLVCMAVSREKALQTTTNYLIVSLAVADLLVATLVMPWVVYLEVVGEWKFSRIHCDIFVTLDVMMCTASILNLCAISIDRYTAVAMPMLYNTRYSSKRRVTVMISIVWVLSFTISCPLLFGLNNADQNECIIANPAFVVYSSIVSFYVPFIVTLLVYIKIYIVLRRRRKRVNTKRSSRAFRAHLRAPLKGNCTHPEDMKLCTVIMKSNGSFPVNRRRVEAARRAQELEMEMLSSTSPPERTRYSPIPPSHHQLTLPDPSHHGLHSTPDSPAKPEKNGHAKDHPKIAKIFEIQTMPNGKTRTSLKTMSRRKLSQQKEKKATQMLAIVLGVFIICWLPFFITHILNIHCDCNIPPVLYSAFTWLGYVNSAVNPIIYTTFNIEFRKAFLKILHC

With `CCCCC(O)(Cn1c2c(c3cc(Cl)ccc31)CN(C)CC2)c1ccc(F)cc1` (centres unmarked) [Compound 1-64, 1-(8-chloro-2-methyl-3,4-dihydro-1H-pyrido[4,3-b]indol-5(2H)-yl)-2-(4-fluorophenyl)hexan-2-ol], the “Percent Inhibition of ligand binding, Adrenergic (1 μM) a2A” value in assay [1] amounted to 88%. The “Percent Inhibition of ligand binding, Serotonin (1 μM) 5-HT2A” value in assay [2] stood at 98%.

The term inhibition denotes the change of the read-out against control, counted positive when it falls. On to `Cc1ccc(CCn2c3c(c4cc(Cl)ccc42)CN(C)C(C)C3)cn1` (centres unmarked) [Compound 1-48, 8-chloro-2,3-dimethyl-5-(2-(6-methylpyridin-3-yl)ethyl)-2,3,4,5-tetrahydro-1H-pyrido[4,3-b]indole], for which the inhibition at 1 µM in assay [3] is 101%; in assay [4], 12%. In addition, the inhibition at 0.1 µM worked out at 86% in assay [5], 40% in assay [6], 30% in assay [2] and 50% in assay [7].

Regarding `Cc1ccc2c(c1)c1c(n2CCc2ccc(C(F)(F)F)nc2)CC(C)N(C)C1` (centres unmarked) [Compound 1-45, 2,3,8-trimethyl-5-(2-(6-(trifluoromethyl)pyridin-3-yl)ethyl)-2,3,4,5-tetrahydro-1H-pyrido[4,3-b]indole], the inhibition at 1 µM in assay [3] was 96%; in assay [4], 0%. The inhibition at 0.1 µM in assay [5] worked out at 78%; in assay [6], 50%; in assay [2], 51%; in assay [7] it was 18%.

On to `COc1ccc(C(C)(O)Cn2c3c(c4cc(C)ccc42)CN(C)CC3)cc1` (centres unmarked) [Compound 1-4, 1-(2,8-dimethyl-3,4-dihydro-1H-pyrido[4,3-b]indol-5(2H)-yl)-2-(4-methoxyphenyl)propan-2-ol], for which the “Binding Data (% Inhibition) Histamine Binding (1μM) H1” value in assay [3] turned out to be 43%. For the same molecule, the inhibition at 1 µM in assay [8] was 57%. The “Percent Inhibition of ligand binding, Serotonin (1 μM) 5-HT7” value in assay [5] (compound at 1 μM) stood at 98%. In addition, in assay [6] (compound at 1 μM), the “Percent Inhibition of ligand binding, Serotonin (1 μM) 5-HT2C” value was 98%. Moreover, in assay [2], the “Percent Inhibition of ligand binding, Serotonin (1 μM) 5-HT2A” value is 100% and the inhibition at 1 µM turned out to be 97%. Besides, the “Percent Inhibition of ligand binding, Serotonin (1 μM) 5-HT6” value in assay [7] (compound at 1 μM) was determined as 87%.

`CCCCC(O)(Cn1c2c(c3cc(Cl)ccc31)CN(C)CC2)c1ccc(F)cc1` (centres unmarked) [Compound 1-7, 1-(8-chloro-2-methyl-3,4-dihydro-1H-pyrido[4,3-b]indol-5(2H)-yl)-2-(4-fluorophenyl)hexan-2-ol]: the inhibition at 1 µM stood at 88% in assay [1] (read-out: Percent Inhibition of ligand binding, Adrenergic (1 μM) a2A) and 98% in assay [2].
